Experimental findings from PubChem BioAssay (NCI) are described below.

“And” between values parts separate entries of the source, which are not always exact repeats. Equal entries are not always repeated.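 In this assay, cells in 96-well plates receive the compound at five concentrations for 48 hours. Endpoints are linearly interpolated between the surrounding concentrations. Abbreviation: GI50, concentration required for 50% inhibition of growth. At the TGI there is no net growth.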 A value given as a limit tells only on which side of the number the result lay.

Test systems include DMS 273 small cell lung; LXFL 529 NSCLC; M19-MEL melanoma; XF 498 CNS; RXF-631 renal; HOP-18 NSCLC; DMS 114 small cell lung; SNB-78 CNS; MDA-N.
Holding throughout (assay): NCI anticancer screen, dose series, 48 h

As to `CCN(CC)CCOc1ccc(C(=C2CCCCC2)c2ccc(OCCN(CC)CC)cc2)cc1`, the TGI with DMS 273 small cell lung was 2.93 µM; in the test with LXFL 529 NSCLC, 3.06 µM; with M19-MEL melanoma, 3.08 µM; in the test with XF 498 CNS, 2.29 µM; in the test on RXF-631 renal it was 2.82 µM; in the test with HOP-18 NSCLC, 8.01 µM.
Regarding `ClC[Si]12OCCN(CCO1)CCO2`, the TGI in the test on DMS 273 small cell lung, in the test on DMS 114 small cell lung, in the test with LXFL 529 NSCLC, in the test on SNB-78 CNS, in the test on RXF-631 renal and in the test on HOP-18 NSCLC was above 100 µM throughout.
`CCN(CC(COc1ccc2c(c1)[n+]([O-])nc(N)[n+]2[O-])OC(C)=O)C(C)=O` (centres undefined) yielded a TGI with MDA-N above 100 µM.
`COc1ccc(C(=O)O)c(Cc2ccc3ccccc3c2)c1`: the TGI in the test with DMS 273 small cell lung, in the test with DMS 114 small cell lung, in the test on LXFL 529 NSCLC, with M19-MEL melanoma, in the test with SNB-78 CNS and with XF 498 CNS was above 100 µM each time. Also, in the test on HOP-18 NSCLC, the TGI was above 100 µM.
Regarding `Cc1cccc(NC(=O)CC#N)c1Cl`, the TGI in the test with DMS 273 small cell lung, with LXFL 529 NSCLC, with M19-MEL melanoma, in the test with SNB-78 CNS and in the test with XF 498 CNS was above 100 µM throughout.
Turning to `S=C(N/N=C(/c1ccccc1)c1ccccn1)Nc1cccc(Cl)c1`, in the test on MDA-N, the GI50 is 1.14 µM; the TGI was 7.35 µM and 6.85 µM.
In the case of `COC(=O)NN1C(C)=C(C(=O)OC)C2(CCOC2=O)C1(C)O` (centres undefined), the TGI in the test with DMS 273 small cell lung, with DMS 114 small cell lung, with LXFL 529 NSCLC, in the test with SNB-78 CNS, with XF 498 CNS and in the test with RXF-631 renal was above 100 µM throughout. Also, in the test on HOP-18 NSCLC, the TGI was above 100 µM.
Take `CC1=C(c2cc(C(=O)Nc3nccs3)nc(NC#N)n2)Sc2ccccc2N1`: the TGI in the test with DMS 273 small cell lung, in the test with LXFL 529 NSCLC, in the test on M19-MEL melanoma, in the test with XF 498 CNS, in the test on RXF-631 renal and in the test on HOP-18 NSCLC was above 100 µM throughout.
Consider `CCN(CC)CC(O)C1CCC(c2ccccc2)CC1` (centres undefined), for which the TGI in the test with MDA-N is 41.8 µM.
`O=C(O)/C=C\C(=O)Nc1ccc2c(c1)C(=O)c1cc(F)ccc1-2` returned a TGI in the test with MDA-N above 100 µM.
Take `CC([O-])C(=O)[O-].NCC1CCC1CN.[Pt+4]` (centres undefined): in the test with MDA-N, the GI50 is above 10 µM and the TGI was above 10 µM.
For the compound `c1ccc(C2N3CCCCC3[C@@H]3c4[nH]c5ccccc5c4CCN23)cc1` (some centres undefined), the TGI in the test with DMS 273 small cell lung, in the test with DMS 114 small cell lung, with LXFL 529 NSCLC, in the test on M19-MEL melanoma, in the test with SNB-78 CNS and with XF 498 CNS was above 100 µM each time. The same compound registered a TGI in the test on HOP-18 NSCLC above 100 µM.
Turning to `CC1(C)OC(=O)C(=C2CC(c3ccccc3)c3ccccc32)C(=O)O1` (centres undefined), the TGI with DMS 114 small cell lung, with LXFL 529 NSCLC, in the test with M19-MEL melanoma, with SNB-78 CNS, in the test on RXF-631 renal and with HOP-18 NSCLC was above 100 µM in each case.
`O=C([O-])c1ccccc1Nc1ccccc1[O-].[Ni+3].[OH3+].[OH3+].[OH3+]`: the GI50 in the test with DMS 114 small cell lung, in the test on LXFL 529 NSCLC, in the test with M19-MEL melanoma and in the test on SNB-78 CNS was above 100 µM in each case. The TGI in the test on DMS 114 small cell lung, in the test on LXFL 529 NSCLC, in the test with M19-MEL melanoma and in the test on SNB-78 CNS was above 100 µM in each case.
For the compound `CN(C)/C(N)=N/C(N)=S`, the TGI in the test on DMS 273 small cell lung, in the test on DMS 114 small cell lung, with LXFL 529 NSCLC, in the test on M19-MEL melanoma, in the test with SNB-78 CNS and with XF 498 CNS was above 100 µM throughout. Further, the TGI with RXF-631 renal and in the test with HOP-18 NSCLC was above 100 µM in each case.
For the compound `CNC1C(OC2C(OC3C(O)C(O)C(O)C(O)C3O)OC(C)C2(O)CO)OC(CO)C(O)C1O` (centres undefined) (tested in a mixture with another compound), in the test on MDA-N, the TGI is above 100 µM.
With `COc1ccc(/C(C)=N/NC(N)=S)c(OC)c1`, the TGI with DMS 114 small cell lung, with LXFL 529 NSCLC, in the test with M19-MEL melanoma, in the test with SNB-78 CNS, with XF 498 CNS and in the test with RXF-631 renal was above 100 µM throughout. In the test with HOP-18 NSCLC, this compound gave a TGI above 100 µM.
In the case of `CCC/C(=N\NC(=O)c1cc2ccccc2cc1O)C(CC)C(=O)CCC(=O)N(Cc1ccccc1)Cc1ccccc1` (centres undefined), the TGI with DMS 273 small cell lung is 52.8 µM; in the test with DMS 114 small cell lung, 59.7 µM; in the test with LXFL 529 NSCLC it was above 100 µM; with M19-MEL melanoma it was 48.6 µM; with SNB-78 CNS it was above 100 µM; in the test on RXF-631 renal, above 100 µM. This compound also yielded a TGI with HOP-18 NSCLC of 91.1 µM.
On to `BrC12c3ccccc3Sc3ccccc3C1(Br)c1ccccc12` (centres undefined), for which the TGI in the test with DMS 273 small cell lung was 87.2 µM; in the test with DMS 114 small cell lung, 64.8 µM; with LXFL 529 NSCLC, 59.7 µM; with M19-MEL melanoma, above 100 µM; with RXF-631 renal, 98.8 µM; in the test on HOP-18 NSCLC, above 100 µM.
In turn, `O=C1c2ccccc2C(=O)c2c1ccc1c2OCO1` showed a TGI with MDA-N above 100 µM.
Take `COc1ccc(-c2coc3cc(OC)cc(O)c3c2=O)cc1`: in the test on MDA-N, the TGI is above 100 µM.
On the same count and under the same terms, under `COc1ccc(CC2C3=C(CCCC3)CCN2C)cc1` (centres undefined) stands above 100 µM; under `O=[N+]([O-])c1ccc(-c2cn(-c3ccc(Cl)cc3)cn2)cc1`, above 100 µM; under `CC(=O)OCC1OC(n2c(-c3ccccc3)c(C)c(C)c(C#N)c2=S)C(OC(C)=O)C(OC(C)=O)C1OC(C)=O` (centres undefined), > 50 µM and 56.6 µM.
